The subject of one experiment is Lact. acidoph. Nature of the experiment: In vitro MIC in brain heart infusion (BHI) broth, Lact. acidoph. The class given is cell-based. The conditions noted are these: 24 h, strain 001, replicate Day 1. An excerpt: (§1) Generally twelve 2 fold dilutions of the test compound are employed, with initial concentration of the test drug being in the range of 50 to 200 mcg./ml. The susceptibility (MIC) of the test organism is accepted as the lowest concentration of compound capable of producing complete inhibition of growth as judged by the naked eye.

The subject of another experiment is Past. haem. 010. Description: Mouse protection test, i.p. infection with multilethal amounts of Past. haem. 010. The conditions noted are these: subcutaneous, infected i.p. with multilethal amounts of Past. haem. 010. The class given is in vivo, mice. As for the experimental part:
Additionally, compound (I) is tested in vivo by the well-known mouse protection test, or by a microbiological (bioassay) determination of serum levels in a variety of mammals (e.g., mouse, rat, dog). For example, at subcutaneous doses of either 100 mg./kg. or 25 mg./kg., there was survival of 5/5 mice infected i.p. with multilethal amounts of Past. haem. 010.

The next experiment deals with Hemoph. pleur. Nature of the experiment: In vitro MIC in brain heart infusion (BHI) broth, Hemoph. pleur. The class given is cell-based. The conditions noted are these: 24 h.
From the text: as §1

The subject of another experiment is Acto. pyog. Description: In vitro MIC in brain heart infusion (BHI) broth, Acto. pyog. The class given is cell-based. The conditions noted are these: 24 h.
From the text: as §1

For a further experiment, the system named is Past. haem. Description: In vitro MIC in brain heart infusion (BHI) broth, Past. haem. The class given is cell-based.
From the text: as §1

The next experiment relates to E. coli. Nature of the experiment: In vitro MIC in brain heart infusion (BHI) broth, E. coli. The class given is cell-based. The conditions noted are these: Escherichia coli.
From the text: as §1

In the next experiment the test system is Past. mult. Nature of the experiment: In vitro MIC in brain heart infusion (BHI) broth, Past. mult. The note with it: 48 h. Format: cell-based.
From the text: as §1

In brackets after ≈: the same amount, converted by molar mass. Bounds are passed on as bounds.

For `CC=CC=CC1OC(O)(C(CC)C(=O)NCC=CC=C(C)C(OC)C(C)C2OC(C=CC=CC=C(C)C(=O)c3c(O)cc[nH]c3=O)C(O)C2O)C(O)C(OC2OC(C)C(OC3OC(C)C(OC)C(O)C3OC)C(OC)C2O)C1(C)C` (stereo not shown) [N-Demethylefrotomycin, N-demethylefrotomycin], the MIC is 12.5 µg/mL (≈ 11 µM) against Lact. acidoph.; 12.5 µg/mL (≈ 11 µM) against Hemoph. pleur. (strain 004, replicate Day 1); 12.5 µg/mL (≈ 11 µM) against Hemoph. pleur. (strain 005, replicate Day 1); 12.5 µg/mL (≈ 11 µM) in the experiment on Acto. pyog. (strain 002, replicate Day 1); 12.5 µg/mL (≈ 11 µM) against Acto. pyog. (strain 008, replicate Day 1); 12.5 µg/mL (≈ 11 µM) in the experiment with Past. haem. (24 h). In addition, the MIC against Past. haem. (48 h) was 12.5 µg/mL (≈ 11 µM); in the experiment on Past. haem. (strain 046, replicate Day 2, BHI broth), 12.5 µg/mL (≈ 11 µM); in the experiment with E. coli (24 h, strain 124, replicate Day 1), above 100 µg/mL; with E. coli (48 h, strain 124, replicate Day 2), above 100 µg/mL; against Past. mult, 12.5 µg/mL (≈ 11 µM). Moreover, the survival in the experiment on Past. haem. 010 (25 mg./kg.) and in the experiment with Past. haem. 010 (100 mg./kg.) was 5/5 each time.

As usually defined, the MIC is the lowest concentration found to suppress growth. A lower MIC goes with a more susceptible organism.
